Laboratory results published in paper PMC6301270 (MedChemComm, 2018).
Like-named read-outs stand apart in the source and are kept apart here.

Assays:
T.b. brucei [1] = test system: T.b. brucei; parameters: method as in https://www.pathogenbox.org/; conditions: ref https://www.pathogenbox.org/, cited from earlier work; for IC50: Table 1, kinetoplastid category, read-out: T. brucei brucei IC50 (μM) Pathogen Box
[2] = test system: T.b. brucei (strain 427) bloodstream form parasites; assay: Trypanosoma brucei assay, dose–response (this study); type: cell-based; conditions: for IC50: Trypanosoma brucei
[3] = test system: T.b. brucei (strain 427) bloodstream form parasites; assay: T.b. brucei single concentration screen (10 μM); conditions: for viability at 10 µM: Trypanosoma brucei, read-out: T.b.brucei % viability (10 µM); for T.b.brucei % viability (10 µM): single concentration 10 µM, % parasite viability relative to non-treated parasites
HeLa cells = assay: HeLa cell assay (cytotoxicity); type: cell-based; conditions: Homo sapiens
Description: HeLa cells were cultured in DMEM medium supplemented with 10% fetal bovine serum and antibiotics (penicillin/streptomycin/amphotericin B) at 37 °C in a 5% CO2 incubator. On the day prior to compound addition, cells were plated in 96-well plates at 2 × 10^4 cells per well. Compounds were added to the cells in 3-fold serial dilutions and incubation at 37 °C in a 5% CO2 incubator continued for 48 hours. Twenty μl resazurin reagent (0.5 mM resazurin in phosphate-buffered saline) was added to each well and, after a 2-hour incubation, fluorescence (Exc560/Em590) was measured in a plate reader. Percentage cell viability in drug-treated wells was calculated from the fluorescent readings obtained relative to those in wells containing control, untreated cells. Plots of % cell viability vs. log[compound] were used to determine IC50 values by non-linear regression analysis using GraphPad Prism.

T.b. brucei [4] = test system: T.b. brucei; parameters: method as in PMID 28674055; conditions: cited from earlier work; for IC50: Table 1, kinetoplastid category of the Pathogen Box, read-out: T. brucei brucei IC50 (μM) Duffy et al.
[5] = test system: M. tuberculosis CTP synthase, PyrG; parameters: method as in PMID 28475832; conditions: cited from earlier work
[6] = Table 1, kinetoplastid category, 48 hours at 37 °C, resazurin, read-out: T. brucei brucei IC50 (μM) This study
[7] = Table 1, HeLa cells, 48 hours, resazurin, read-out: HeLa IC50
[8] = HeLa, 48 h, read-out: HeLa IC50 (μM)
[9] = Table 2, remaining Pathogen Box, 48 hours at 37 °C, resazurin, read-out: T. brucei brucei IC50 (μM) This study
[10] = Table 2, HeLa cells, 48 hours, resazurin, read-out: HeLa IC50

| SMILES | IC50 (T.b. brucei [1]) | IC50 [2, 6] | viability at 10 µM [3] | IC50 (HeLa cells; [7]) | other results |
| --- | --- | --- | --- | --- | --- |
| Cc1ncc(-c2ccnc(Nc3ccc(S(C)(=O)=O)cc3)n2)n1C(C)C [Compound 6, CC(C)n1c(C)ncc1c2ccnc(Nc3ccc(cc3)S(=O)(=O)C)n2] | 0.26 µM | 0.084 µM | 2.2% | 1.2 µM | – |
| CNC(=O)c1nn(C)c2c1C(C)(C)Cc1cnc(Nc3ccc(N4CCN(C)CC4)cc3)nc1-2 [Compound 7, CNC(=O)c1nn(C)c2c3nc(Nc4ccc(cc4)N5CCN(C)CC5)ncc3CC(C)(C)c12] | < 0.13 µM | 0.048 µM | 0.62% | 4 µM | – |
| O=C(NCc1nnc2n1CCCCC2)c1ccc(-c2ccc(F)cc2)o1 [Compound 8, Fc1ccc(cc1)c2oc(cc2)C(=O)NCc3nnc4CCCCCn34] | 0.1 µM | 0.11 µM | 1.3% | > 25 µM | – |
| NCCN(C(=O)c1ccc(Cl)cc1Cl)c1ccc(OCc2ccc(Cl)cc2)cc1 [Compound 9, NCCN(C(=O)c1ccc(Cl)cc1Cl)c2ccc(OCc3ccc(Cl)cc3)cc2] | < 0.13 µM | 0.49 µM | 4% | 7.5 µM | – |
| Cc1ccc(S(=O)(=O)Nc2ccc(CN3CCN(C(=O)c4cccc(C#N)c4)CC3)cc2)cc1 [Compound 11, O=C(N1CCN(CC2=CC=C(NS(=O)(C3=CC=C(C)C=C3)=O)C=C2)CC1)C4=CC(C#N)=CC=C4] | 0.14 µM | 0.12 µM | 6.6% | > 25 µM | – |
| COc1ccc(C(=N)N)cc1-c1cn(-c2ccc(C(=N)N)cc2)nn1 [Compound 12, COc1ccc(cc1c2cn(nn2)c3ccc(cc3)C(=N)N)C(=N)N] | 0.25 µM | 0.54 µM | 9% | > 25 µM | – |
| O=C(NCCc1ccn(-c2ccccc2)n1)C1CCCCC1 [Compound 13, O=C(NCCc1ccn(n1)c2ccccc2)C3CCCCC3] | 0.15 µM | 0.21 µM | 2% | > 25 µM | – |
| CS(=O)(=O)c1ccccc1C(=O)N(Cc1ccccc1)c1ccccc1 [Compound 14, CS(=O)(=O)c1ccccc1C(=O)N(Cc2ccccc2)c3ccccc3] | 0.56 µM | 1.2 µM | 18% | > 25 µM | – |
| COc1ccc(C2=NN(C3CCCCCC3)C(=O)[C@@H]3CC=CC[C@H]23)cc1OCCCCOc1ccc(-c2nnn[nH]2)cc1 [Compound 15, COC1=C(OCCCCOC2=CC=C(C3=NNN=N3)C=C2)C=C(C([C@@H]4[C@H]5CC=CC4)=NN(C6CCCCCC6)C5=O)C=C1] | 0.02 µM | – | 6% | – | IC50 ([2]; 48 h, read-out: T. brucei brucei IC50 (μM) This study): 0.12 µM; IC50 (HeLa cells; [8]): > 25 µM |
| N=C(N)Nc1ccc(-c2ccc(-c3ccc(N=C(N)N)c(Cl)c3)o2)cc1Cl [Compound 16, NC(=N)Nc1ccc(cc1Cl)c2oc(cc2)c3ccc(N=C(N)N)c(Cl)c3] | 0.6 µM | 0.65 µM | 1.2% | 17 µM | – |
| CCC(=O)Nc1ccccc1C(=O)Nc1ccccn1 [Compound 17, CCC(=O)Nc1ccccc1C(=O)Nc2ccccn2] | 2.46 µM | 0.38 µM | 7% | > 25 µM | – |
| COc1ccc(S(=O)(=O)Nc2ccc(CN3CCN(C(=O)c4cccc(C#N)c4)CC3)cc2)cc1 [Compound 18, O=C(N1CCN(CC2=CC=C(NS(=O)(C3=CC=C(OC)C=C3)=O)C=C2)CC1)C4=CC(C#N)=CC=C4] | 0.5 µM | 0.44 µM | 6.5% | > 25 µM | – |
| CCCCN(CCCC)c1c(C#N)cc(S(=O)(=O)Nc2ccccc2)cc1C#N [Compound 19, CCCCN(CCCC)c1c(cc(cc1C#N)S(=O)(=O)Nc2ccccc2)C#N] | 0.26 µM | 1.3 µM | 6% | > 25 µM | – |
| Cc1noc(C)c1COc1cccc(C(=O)N=c2[nH]cccc2C)c1 [Compound 20, Cc1onc(C)c1COc2cccc(c2)C(=O)Nc3ncccc3C] | 2.07 µM | 0.62 µM | 7% | > 25 µM | – |
| CO[C@@H](C(=O)N1Cc2[nH]nc(NC(=O)c3ccc(N4CCN(C)CC4)cc3)c2C1)c1ccccc1 [Compound 21, CO[C@@H](C(=O)N1Cc2[nH]nc(NC(=O)c3ccc(cc3)N4CCN(C)CC4)c2C1)c5ccccc5] | 1.02 µM | 0.3 µM | 4.5% | > 25 µM | – |
| CNC(=O)C1Cc2ccccc2N1C(=O)Cc1ccc(F)cc1 (stereo not shown) [Compound 22, CNC(=O)C1Cc2ccccc2N1C(=O)Cc3ccc(F)cc3] | 0.49 µM | 0.71 µM | 7% | > 25 µM | – |
| c1ccc(Oc2ccc(-c3cc(C4CCOCC4)[nH]n3)cc2)cc1 [Compound 23, C1CC(CCO1)c2cc(n[nH]2)c3ccc(Oc4ccccc4)cc3] | 7.58 µM | – | 82% | – | IC50 (T.b. brucei [4]): ≥ 1 µM; T.b.brucei % viability (10 µM) [3]: did not sufficiently reduce cell viability |
| Cc1nn2c(=O)c3c([nH]c2c1-c1ccc(Cl)cc1)CCCC3 [Compound 24, Cc1nn2C(=O)C3=C(CCCC3)Nc2c1c4ccc(Cl)cc4] | – | – | 19% | – | T.b. brucei activity in words, Pathogen Box (T.b. brucei [1]): sub-micromolar range; IC50 (T.b. brucei [4]): ≥ 1 µM; T.b.brucei % viability (10 µM) [3]: did not sufficiently reduce cell viability |
| COc1ccc(C2=NN(C3CCCCCC3)C(=O)C2(C)C)cc1OCCCCOc1ccc(-c2nn[nH]n2)cc1 [Compound 25, COC1=C(OCCCCOC2=CC=C(C3=NNN=N3)C=C2)C=C(C4=NN(C5CCCCCC5)C(C4(C)C)=O)C=C1] | 0.79 µM | 1.7 µM | 8.5% | > 25 µM | – |
| Cc1nn2c(O)c3c(nc2c1-c1ccc(F)cc1)CCCC3 [Compound 28, Cc1nn2c(O)c3CCCCc3nc2c1c4ccc(F)cc4] | 1.94 µM | 4.6 µM | 12% | > 25 µM | – |
| CC1=Nc2ccc(Cl)cc2C(O)(c2ccc(C)cc2)N1CCN1CCCCC1 (stereo not shown) [Compound 29, CC1=Nc2ccc(Cl)cc2C(O)(N1CCN3CCCCC3)c4ccc(C)cc4] | 0.98 µM | 0.98 µM | 2% | 15 µM | – |
| c1ccc(Oc2ccc(-c3cc(N4CCNCC4)[nH]n3)cc2)cc1 [Compound 30, C1CN(CCN1)c2cc(n[nH]2)c3ccc(Oc4ccccc4)cc3] | 0.99 µM | 2.3 µM | 0.3% | 11 µM | – |
| CN1CCN(S(=O)(=O)c2ccc(-c3ccc4c(Nc5ncc(Cl)cn5)ccnc4c3)cc2)CC1 [Compound 31, CN1CCN(CC1)S(=O)(=O)c2ccc(cc2)c3ccc4c(Nc5ncc(Cl)cn5)ccnc4c3] | 3.78 µM | 2.2 µM | 6.4% | > 25 µM | – |
| CCOC(=O)c1noc(N)c1-c1ccccc1 [Compound 34, CCOC(=O)c1noc(N)c1c2ccccc2] | 1.22 µM | 0.41 µM | 12% | > 25 µM | T.b. brucei activity in words, Pathogen Box (T.b. brucei [1]): low micromolar range; T.b. brucei inhibition in words, this study [2]: mid-nanomolar inhibitor |
| CC(Oc1ccccc1)C(=O)Nc1nc(-c2ccccn2)cs1 (stereo not shown) [Compound 40, CC(Oc1ccccc1)C(=O)Nc2nc(cs2)c3ccccn3] | – | – | 2% | – | Inhibition of M. tuberculosis CTP synthase, PyrG [5]: moderate inhibitors; T.b. brucei inhibition in words, this study [2]: sub-micromolar range; IC50 [2, 9]: 0.76 µM; IC50 ([2]; pIC50 values (M), read-out: pIC50 (T.b. brucei), this study (converted)): < 1 µM; IC50 (HeLa cells; [10]): 8.4 µM |
| O=C(COc1cccc(F)c1)Nc1nc(-c2ccccn2)cs1 [Compound 43, Fc1cccc(OCC(=O)Nc2nc(cs2)c3ccccn3)c1] | – | – | 3% | – | Inhibition of M. tuberculosis CTP synthase, PyrG [5]: moderate inhibitors; IC50 (HeLa cells; [8]): > 25 µM |
| O=C(Nc1ccccc1)c1ccc(-c2cc3ccncc3cc2OC2CCNCC2)s1 [Compound 51, O=C(Nc1ccccc1)c2ccc(s2)c3cc4ccncc4cc3OC5CCNCC5] | – | – | 1% | – | T.b. brucei inhibition in words, this study [2]: selectively inhibited T.b. brucei, albeit moderately; IC50 [2, 9]: 1 µM; Selectivity index ([2]; calculated as IC50(HeLa)/IC50(T.bb)): 7.5; T.b. brucei inhibition in words, Duffy et al. (T.b. brucei [4]): moderate inhibition; IC50 (HeLa cells; [10]): 7.5 µM |
| O=C(Nc1ccc(C(F)(F)F)c(C(F)(F)F)c1)c1cc(Cl)ccc1O [Compound 66, Oc1ccc(Cl)cc1C(=O)Nc2ccc(c(c2)C(F)(F)F)C(F)(F)F] | – | – | 42% | – | T.b. brucei inhibition in words, Duffy et al. (T.b. brucei [4]): sub-micromolar inhibitor |
